Assay [1] deals with human embryonal carcinoma (EC) cell line NT2/D1. The assay can be described thus: Retinoic acid induction of NT2/D1 cells (differentiation, northern analysis). The conditions noted are these: nine days of RA, 0.01 to 10 µM, normalized to β-actin probe. Type of assay: cell-based. How it is done:
The human embryonal carcinoma (EC) cell line NT2/D1 can be induced to differentiate at concentrations of retinoic acid (RA) varying from 0.01 to 10 µM, with the proportion of differentiating EC cells ranging from 50% at […] RA to greater than 99% at […] RA. The expression of MK and HBNF during differentiation of NT2/D1 is studied, at concentrations ranging from 0.01 to 10 µM. After nine days of exposure to RA, total RNA was extracted from cells and probed for gene expression by northern analysis. Expression of both gene follows a similar pattern. Levels of mRNA expression remain at a steady background level. When RNA hybridization signals are normalized to a control β-actin probe, the maximum increases are calculated to be 6-fold for HBNF and 11-fold for MK. […] In this cell line, MK gene expression is induced 8-10 fold above background.
The human embryonal carcinoma cell line Nt2/D1 is grown. For retinoic acid induction, cells are grown and resuspended in DMEM medium containing 10% bovine calf serum and resuspended in DMEM medium containing 10% bovine calf serum (Hyclone Laboratories, Inc.) at a density of 5 x 10⁵ cells per 100 mm dish. Varying concentrations of all-trans retinoic acid in dimethyl sulfoxide (10 µl) is added and cells are incubated for 9 days. Fresh medium and RA are added at days 4 and 8. […]

In assay [2] the test system is mouse EC cell line, HM-1. To be noted: retinoic acid induction; cited from earlier work.

With `CC1=C(/C=C/C(C)=C/C=C/C(C)=C/C(=O)O)C(C)(C)CCC1` [RA, all-trans retinoic acid], in assay [1], the “maximum increase of HBNF mRNA expression” value is 6 fold and the “maximum increase of MK mRNA expression” value is reported as 11 fold. Besides, the “MK gene expression induced above background” value in assay [2] is listed as 8-10 fold.

(Values after patent publication EP0535336A2, “MK protein as cell growth inhibitor” (AMERICAN CYANAMID COMPANY, priority 1991, dated 1993).)
